Experimental data from patent US11034685B2, “Aminopyridine derivatives as TAM family kinase inhibitors” (SignalChem Lifesciences Corporation, priority 2013, dated 2021).

Tests used:
Type in all cases: biochemical
human Axl (473-end) = target: T1, human Axl (473-end) (Homo sapiens, UniProt P30530); experiment: Kinase enzymatic activity assay ([33P]-ATP phosphate transfer), Axl; conditions: inhibitory activity on Axl; class symbols
T1 construct: GST (N); made in house; host or cells: Sf9 insect cells (baculovirus)
T1 sequence (P30530 473-894 limits assumed): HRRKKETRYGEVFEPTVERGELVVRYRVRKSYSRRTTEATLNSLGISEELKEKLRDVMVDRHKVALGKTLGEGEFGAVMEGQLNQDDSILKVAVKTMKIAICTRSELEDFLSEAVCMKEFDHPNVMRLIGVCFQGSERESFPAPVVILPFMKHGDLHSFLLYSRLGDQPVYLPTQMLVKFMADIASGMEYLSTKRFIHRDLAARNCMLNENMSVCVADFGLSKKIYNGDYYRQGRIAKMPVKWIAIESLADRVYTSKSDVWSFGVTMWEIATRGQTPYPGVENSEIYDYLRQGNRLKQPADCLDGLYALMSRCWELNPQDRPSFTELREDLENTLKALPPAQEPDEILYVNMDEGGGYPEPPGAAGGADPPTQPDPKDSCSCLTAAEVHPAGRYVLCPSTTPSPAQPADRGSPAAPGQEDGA
Method: (§1) Preparation of Active Recombinant Kinase Proteins:
(§2) Recombinant human Tyro3 (455-end, the gene accession number NM_006293), human Axl (473-end, the gene accession number NM_021913) and human Mer (578-872, the gene accession number NM_006343) were independently expressed by baculovirus in Sf9 insect cells using an N-terminal GST tag. The recombinant proteins were stored at −70° C. in a medium containing 50 mM Tris-HCl, pH 7.5, 150 mM NaCl, 10 mM glutathione, 0.1 mM EDTA, 0.25 mM DTT, 0.1 mM PMSF and 25% glycerol. The recombinant proteins were aliquoted into smaller quantities after centrifugation to avoid repeated handling and multiple freeze/thaw cycles for the most favorable performance.
(§3) Preparation of Assay Reagents:
(§4) Kinase Assay Buffer: This buffer solution consisted of the following components: 25 mM MOPS, pH 7.2, 12.5 mM β-glycerol-phosphate, 25 mM MgCl2, 5 mM EGTA, 2 mM EDTA and DTT 0.25 mM which was added prior to use.
(§5) Kinase Dilution Buffer: Kinase Assay Buffer was diluted at a 1:4 ratio (5× dilution) with distilled water.
(§6) [^33P]-ATP assay cocktail: In a designated radioactive working area, a 250 μM [^33P]-ATP assay cocktail was prepared by the addition of the following components: 150 μL of 10 mM ATP stock solution, 100 μL [^33P]-ATP (1 mci/100 μL), 5.75 mL of kinase assay buffer. This solution was stored in 1 mL aliquots at −20 OC.
(§7) ATP stock solution (10 mM): The ATP stock solution was prepared by dissolving 55 mg of ATP in 10 mL of kinase assay buffer. It was stored in 200 μL aliquots at −20° C.
(§8) Active Kinase Stock Solution: The active recombinant kinase protein (0.1 μg/μL) was diluted with Kinase Dilution Buffer and the activity was assayed using a serial dilution method. The specific activity is expressed in nmoL/min/mg.
(§9) Substrates: poly(4:1 glu:tyr) is the substrate used for each kinase Tyro3, Axl and Mer: The peptide substrate was dissolved in water to give the final concentration of 1 mg/mL.
(§10) Test compound solution: Test compound was dissolved in DMSO to obtain a 10 mM solution. The assay solution was prepared by adding 5 μL of this solution to […] of 10% DMSO/water to obtain the final concentration of 50 μM.
(§11) The enzymatic activity of all three kinases was determined as follows. Using a 96-well plate, the wells were divided into three categories: Blank wells, […] and Test wells. In Test wells, 5 μL of the test compound solution and 5 μL of the substrate solution were added. In Control wells, 5 μL of 10% DMSO/water and 5 μL of the substrate solution were added. In Blank wells, 10 μL of 10% DMSO/water was added. To each well was added 10 μL of Active Kinase Stock Solution to make up the volume in each well to 20 μL. All test samples, controls and blanks were run in duplicate. The reaction was initiated by the addition of 5 μL of [^33P]-ATP assay cocktail, bringing the final volume up to 25 μL in every well. The mixture was incubated at room temperature for 30 minutes. The reaction was terminated by transferring 10 μL of the reaction mixture into a Millipore MultiScreen filter plate (cat. number MSPHN6B50). The filter plate was washed in a 1% phosphoric acid solution with constant gentle shaking for 15 minutes and this step was repeated once. After the plate was dried in air, scintillation fluid was added to each well and the radioactivity in each well in CPM was counted by a Microbeta TriLux. The corrected CPM in each test well was determined by subtracting the average value of Blank well values. Percentage of inhibition of the kinase enzymatic activity by the test compound was determined using the following formula: […]
(§12) The IC50 values were determined in a similar way following a serial dilution of the test compound. The percentage of inhibition at each concentration was calculated following the above formula. The IC50 was estimated from the curve of % Inhibition against Concentration in log unit using Prism 5, version 5.01.

human Mer (578-872) = target: T2, human Mer (578-872) (Homo sapiens, UniProt Q12866); experiment: Kinase enzymatic activity assay ([33P]-ATP phosphate transfer), Mer; conditions: inhibitory activity on Mer; class symbols
T2 construct: GST (N); made in house; host or cells: Sf9 insect cells (baculovirus)
T2 sequence (Q12866 578-872): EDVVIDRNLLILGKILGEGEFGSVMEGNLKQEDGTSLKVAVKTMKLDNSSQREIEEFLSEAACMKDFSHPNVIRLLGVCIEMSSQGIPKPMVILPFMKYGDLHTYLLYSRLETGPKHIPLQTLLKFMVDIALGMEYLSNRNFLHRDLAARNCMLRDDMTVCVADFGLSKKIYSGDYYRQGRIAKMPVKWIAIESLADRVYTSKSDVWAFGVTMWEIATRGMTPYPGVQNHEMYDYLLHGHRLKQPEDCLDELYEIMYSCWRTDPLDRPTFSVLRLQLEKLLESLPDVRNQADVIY
Method: as §1, §2, §3, §4, §5, §6, §7, §8, §9, §10, §11, §12

[1] = target: T3, Recombinant human Tyro3 (455-end) (Homo sapiens, UniProt Q06418); experiment: Kinase enzymatic activity assay ([33P]-ATP phosphate transfer), Tyro3; conditions: inhibitory activity on Tyro3; class symbols
T3 construct: GST (N); made in house; host or cells: Sf9 insect cells (baculovirus)
T3 sequence (Q06418 455-890 limits assumed): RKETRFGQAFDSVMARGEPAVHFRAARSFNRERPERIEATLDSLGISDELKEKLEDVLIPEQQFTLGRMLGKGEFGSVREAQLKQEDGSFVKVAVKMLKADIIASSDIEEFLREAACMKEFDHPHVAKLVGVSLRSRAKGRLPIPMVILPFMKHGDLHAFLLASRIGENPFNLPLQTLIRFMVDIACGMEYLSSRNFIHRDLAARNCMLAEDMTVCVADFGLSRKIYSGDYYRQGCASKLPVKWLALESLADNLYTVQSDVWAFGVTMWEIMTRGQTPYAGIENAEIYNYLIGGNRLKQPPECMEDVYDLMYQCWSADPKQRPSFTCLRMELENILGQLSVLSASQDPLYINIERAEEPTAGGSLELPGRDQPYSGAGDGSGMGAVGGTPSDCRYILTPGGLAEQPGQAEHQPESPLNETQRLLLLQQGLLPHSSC
Method: as §1, §2, §3, §4, §5, §6, §7, §8, §9, §10, §11, §12

IC50 (human Axl (473-end)) [nM] | IC50 (human Mer (578-872)) [nM] | IC50 [1] [nM] | SMILES
< 500 | < 500 | < 500 | Nc1ncc(-c2cnn(C3CCNCC3)c2)cc1-c1nnc(-c2ccc(F)cc2)o1 [3-(5-(4-fluorophenyl)-1,3,4-oxadiazol-2-yl)-5-(1-(piperidin-4-yl)-1H-pyrazol-4-yl)pyridin-2-amine]
< 500 | 500 to 1000 | < 500 | Nc1ncc(-c2cn[nH]c2)cc1-c1nnc(-c2ccc(F)cc2)o1 [3-(5-(4-fluorophenyl)-1,3,4-oxadiazol-2-yl)-5-(1H-pyrazol-4-yl)pyridin-2-amine]
< 500 | < 500 | < 500 | Nc1ncc(-c2cnn(C3CCNCC3)c2)cc1-c1nnc(CC2CC2)o1 [3-(5-(cyclopropylmethyl)-1,3,4-oxadiazol-2-yl)-5-(1-(piperidin-4-yl)-1H-pyrazol-4-yl)pyridin-2-amine]
< 500 | < 500 | < 500 | Nc1ncc(-c2cnn(C3CCNCC3)c2)cc1-c1nnc(Cc2ccccc2)o1 [3-(5-benzyl-1,3,4-oxadiazol-2-yl)-5-(1-(piperidin-4-yl)-1H-pyrazol-4-yl)pyridin-2-amine]
< 500 | < 500 | < 500 | Nc1ncc(-c2cnn(C3CCNCC3)c2)cc1-c1noc(-c2ccccc2)n1 [3-(5-phenyl-1,2,4-oxadiazol-3-yl)-5-(1-(piperidin-4-yl)-1H-pyrazol-4-yl)pyridin-2-amine]
< 500 | 1000 to 10000 | 500 to 1000 | Nc1ncc(-c2cnn(C3CCOCC3)c2)cc1-c1noc(-c2ccccc2)n1 [3-(5-phenyl-1,2,4-oxadiazol-3-yl)-5-(1-(tetrahydro-2H-pyran-4-yl)-1H-pyrazol-4-yl)pyridin-2-amine]
< 500 | 1000 to 10000 | < 500 | Nc1ncc(-c2cn[nH]c2)cc1-c1noc(-c2ccccc2)n1 [3-(5-phenyl-1,2,4-oxadiazol-3-yl)-5-(1H-pyrazol-4-yl)pyridin-2-amine]

More lines, now with the values behind:

SMILES | IC50 (human Axl (473-end)) [nM] | IC50 (human Mer (578-872)) [nM] | IC50 [1] [nM]
CN1CCC(n2cc(-c3cnc(N)c(-c4nnc(-c5c(Cl)cccc5Cl)o4)c3)cn2)CC1 [3-(5-(2,6-dichlorophenyl)-1,3,4-oxadiazol-2-yl)-5-(1-(1-methylpiperidin-4-yl)-1H-pyrazol-4-yl)pyridin-2-amine] | < 500 | < 500 | < 500
Nc1ncc(-c2ccn(C3CCNCC3)c2)cc1-c1nnc(-c2c(Cl)cccc2Cl)o1 [3-(5-(2,6-dichlorophenyl)-1,3,4-oxadiazol-2-yl)-5-(1-(piperidin-4-yl)-1H-pyrrol-3-yl)pyridin-2-amine] | < 500 | < 500 | < 500
Nc1ncc(-c2cnn(C3CCOCC3)c2)cc1-c1nnc(-c2c(Cl)cccc2Cl)o1 [3-(5-(2,6-dichlorophenyl)-1,3,4-oxadiazol-2-yl)-5-(1-(tetrahydro-2H-pyran-4-yl)-1H-pyrazol-4-yl)pyridin-2-amine] | < 500 | < 500 | < 500
Nc1ncc(-c2cn[nH]c2)cc1-c1nnc(-c2c(Cl)cccc2Cl)o1 [3-(5-(2,6-dichlorophenyl)-1,3,4-oxadiazol-2-yl)-5-(1H-pyrazol-4-yl)pyridin-2-amine] | < 500 | < 500 | < 500
CN1CCC(n2cc(-c3cnc(N)c(-c4ncc(-c5cccc(Cl)c5)o4)c3)cn2)CC1 [3-(5-(3-chlorophenyl)oxazol-2-yl)-5-(1-(1-methylpiperidin-4-yl)-1H-pyrazol-4-yl)pyridin-2-amine] | < 500 | < 500 | < 500
Nc1ncc(-c2cnn(C3CCNCC3)c2)cc1-c1ncc(-c2cccc(Cl)c2)o1 [3-(5-(3-chlorophenyl)oxazol-2-yl)-5-(1-(piperidin-4-yl)-1H-pyrazol-4-yl)pyridin-2-amine] | < 500 | < 500 | < 500
Nc1ncc(-c2cnn(C3CCCCC3)c2)cc1-c1ncc(-c2cccc(Cl)c2)o1 [3-(5-(3-chlorophenyl)oxazol-2-yl)-5-(1-cyclohexyl-1H-pyrazol-4-yl)pyridin-2-amine] | 1000 to 10000 | 1000 to 10000 | 1000 to 10000
CC(C)(C)c1ccc(-c2nnc(-c3cc(-c4cnn(C5CCNCC5)c4)cnc3N)o2)cc1 [3-(5-(4-(tert-butyl)phenyl)-1,3,4-oxadiazol-2-yl)-5-(1-(piperidin-4-yl)-1H-pyrazol-4-yl)pyridin-2-amine] | < 500 | < 500 | < 500
CC(C)(C)c1ccc(-c2nnc(-c3cc(-c4cn[nH]c4)cnc3N)o2)cc1 [3-(5-(4-(tert-butyl)phenyl)-1,3,4-oxadiazol-2-yl)-5-(1H-pyrazol-4-yl)pyridin-2-amine] | 1000 to 10000 | > 10000 | > 10000
CN1CCC(n2cc(-c3cnc(N)c(-c4ncc(-c5ccc(Cl)cc5)o4)c3)cn2)CC1 [3-(5-(4-chlorophenyl)oxazol-2-yl)-5-(1-(1-methylpiperidin-4-yl)-1H-pyrazol-4-yl)pyridin-2-amine] | < 500 | < 500 | < 500
Nc1ncc(-c2cnn(C3CCNCC3)c2)cc1-c1ncc(-c2ccc(Cl)cc2)o1 [3-(5-(4-chlorophenyl)oxazol-2-yl)-5-(1-(piperidin-4-yl)-1H-pyrazol-4-yl)pyridin-2-amine] | < 500 | < 500 | < 500
Nc1ncc(-c2cnn(C3CCCCC3)c2)cc1-c1ncc(-c2ccc(Cl)cc2)o1 [3-(5-(4-chlorophenyl)oxazol-2-yl)-5-(1-cyclohexyl-1H-pyrazol-4-yl)pyridin-2-amine] | > 10000 | > 10000 | > 10000
